The term EC50 denotes the concentration at which the effect is half-maximal. Low readings indicate a more potent agent, high ones a less potent agent.

The assay addresses T1, KCNQ2/3 channels (Homo sapiens, UniProt O43525+O43526).
T1 construct: expressed in transfected cells; host or cells: CHO-K1 cells
Nature of the assay: Fluorescence assay using a voltage-sensitive dye (fluorimetry). The note with it: for EC50: CHO-K1 cells expressing KCNQ2/3 channels; for Emax at 1 µM: 50 μM retigabine = 100%, CHO-K1 cells expressing KCNQ2/3, read-out: Fluorimetry % efficacy at 1 μM (50 μM retigabine = 100%). Type of assay: cell-based. As for the experimental part: […] CHO-K1 cells expressing KCNQ2/3 channels are cultivated adherently at 37° C., 5% CO2 and 95% humidity in cell culture bottles (e.g. 80 cm^2 TC flasks, Nunc) with DMEM-high glucose (Sigma Aldrich, D7777) including 10% FCS (PAN Biotech, e.g. 3302-P270521) or alternatively MEM Alpha Medium (1×, liquid, Invitrogen, #22571), 10% foetal calf serum (FCS) (Invitrogen, #10270-106, heat-inactivated) and the necessary selection antibiotics.
Before being seeded out for the measurements, the cells are washed with a 1×DPBS buffer without Ca^2+/Mg^2+ (e.g. Invitrogen, #14190-094) and detached from the bottom of the culture vessel by means of Accutase (PAA Laboratories, #L11-007) (incubation with Accutase for 15 min at 37° C.). The cell count then present is determined using a CASY™ cell counter (TCC model, Scharfe System) in order subsequently to apply 20,000 to 30,000 cells/well/100 μl of the described nutrient medium, depending on density optimisation for the individual cell line, to 96-well measuring plates of the Corning™ CeIIBIND™ type (flat clear-bottom black polystyrene microplates, #3340). Incubation is then carried out for one hour at room temperature, without gassing or adjusting the humidity, followed by incubation for 24 hours at 37° C., 5% CO2 and 95% humidity.
The voltage-sensitive fluorescent dye from the Membrane Potential Assay Kit (Red™ bulk format part R8123 for FLIPR, MDS Analytical Technologies™) is prepared by dissolving the contents of a vessel of Membrane Potential Assay Kit Red Component A in 200 ml of extracellular buffer (ES buffer, 120 mM NaCl, 1 mM KCl, 10 mM HEPES, 2 mM CaCl2, 2 mM MgCl2, 10 mM glucose; pH 7.4). After removal of the nutrient medium, the cells are washed with 200 μl of ES buffer, then covered with a layer of 100 μl of the dye solution prepared above and incubated for 45 min at room temperature with exclusion of light.
The fluorescence measurements are carried out with a BMG Labtech FLUOstar™, BMG Labtech NOVOstar™ or BMG Labtech POLARstar™ instrument (525 nm excitation, 560 nm emission, bottom-read mode). After incubation of the dye, 50 μl of the substances to be tested in the desired concentrations, or 50 μl of ES buffer for control purposes, are introduced into separate cavities of the measuring plate and incubated for 30 min at room temperature whilst being shielded from light. The fluorescence intensity of the dye is then measured for 5 min and the fluorescence value F1 of each well is thus determined at a given, constant time. 15 μl of a […] KCl solution ([…]) are then added to each well. The change in fluorescence is subsequently measured until all relevant measured values have been obtained (mainly 5-30 min). At a given time after KCl application, a fluorescence value F2 is determined, in this case at the time of the fluorescence peak.
For calculation, the fluorescence intensity F2 is compared with the fluorescence intensity F1, and the agonistic activity of the target compound on the potassium channel is determined therefrom. F2 and F1 are calculated as follows: […]
is determined by adding to the reaction batch only the buffer solution instead of the substance to be tested, determining the value F1K of the fluorescence intensity, adding the potassium ions as described above and measuring a value F2K of the fluorescence intensity. Then F2K and F1K are calculated as follows: […]
Calculations of EC50 values are carried out with the aid of Prism v4.0 software (GraphPad Software™).

Each structure is given as a SMILES string.

For `CCCCCSc1nc2ccccc2cc1C(=O)NCc1cccs1` [compound 1, 2-(Pentylthio)-N-(2-thienylmethyl)-3-quinoline carboxamide], the EC50 stood at 744 nM and the Emax at 1 µM was 143%. As for `COC(=O)CCSc1nc2ccccc2cc1C(=O)NCc1cccs1` [compound 2, 3-{[3-[Oxo-(2-thienylmethylamino)methyl]-2-quinolyl]thio}propanoic acid methyl ester], the Emax at 1 µM was 26%.

On to `O=C(NCc1cccs1)c1cc2ccccc2nc1SCCCC1CCCCC1` [compound 3], for which a half-maximal effect (EC50) was put at 1930 nM and the Emax at 1 µM came out at 77%. Regarding `O=C(NCc1cccs1)c1cc2ccccc2nc1SCCCc1ccccc1` [compound 4], the midpoint of the response, the EC50, lay at 144 nM and the Emax at 1 µM is 168%. Take `O=C(NCc1cccs1)c1cc2ccccc2nc1SCCS(=O)(=O)c1ccccc1` [compound 5, 2-[2-(Phenylsulfonyl)ethylthio]-N-(2-thienyl-methyl)-3-quinoline carboxamide]: the response was half-maximal at 2660 nM (EC50) and the Emax at 1 µM stood at 98%. For `O=C(NCc1cccs1)c1cc2ccccc2nc1SCCCc1ccc(F)cc1` [compound 6] the same measures were 1220 nM and 111%.

Take `CCSc1nc2ccccc2cc1C(=O)NCc1cccs1` [compound 7, 2-(Ethylthio)-N-(2-thienylmethyl)-3-quinoline carboxamide]: a half-maximal effect (EC50) was put at 1350 nM. For the compound `O=C(NCc1cccs1)c1cc2cc(C(F)(F)F)ccc2nc1SCCS(=O)(=O)c1ccccc1` [compound 8, 2-[2-(Phenylsulfonyl)ethylthio]-N-(2-thienyl-methyl)-6-(trifluoromethyl)-3-quinoline carboxamide], the Emax at 1 µM was 46%. For the compound `O=C(NCc1cccs1)c1cc2ccc(C(F)(F)F)cc2nc1SCCS(=O)(=O)c1ccccc1` [compound 9], the Emax at 1 µM is 26%. Same read-out and setting: the figure for `O=C(NCc1cccs1)c1cc2c(C(F)(F)F)cccc2nc1SCCS(=O)(=O)c1ccccc1` [compound 10] is 9%; for `CCCCCSc1nc2ccc(C(F)(F)F)cc2cc1C(=O)NCc1cccs1` [compound 11, 2-(Pentylthio)-N-(2-thienylmethyl)-6-(trifluoromethyl)-3-quinoline carboxamide] it is 41%. Turning to `CCSc1nc2ccc(C(F)(F)F)cc2cc1C(=O)NCc1cccs1` [compound 12], the half-maximal effective concentration (EC50) amounted to 412 nM and the Emax at 1 µM is 155%. For `O=C(NCc1cccs1)c1cc2ccccc2nc1SCCS(=O)(=O)c1cccc(C(F)(F)F)c1` [compound 13, N-(2-Thienylmethyl)-2-[2-[3-(trifluoromethyl)-phenyl]sulfonylethylthio]-3-quinoline carboxamide] the same measures were 991 nM and 136%.

As for `CCCCCSc1nc2cc(C(F)(F)F)ccc2cc1C(=O)NCc1cccs1` [compound 15], the EC50 worked out at 778 nM and the Emax at 1 µM came to 145%. For `O=C(NCc1cccs1)c1cc2ccccc2nc1SCCS(=O)(=O)c1ccc(F)cc1` [compound 16] the same measures were 78 nM and 164%. With `Cc1ccc(S(=O)(=O)CCSc2nc3ccccc3cc2C(=O)NCc2cccs2)cc1` [compound 17], the Emax at 1 µM is 77%. With `Cc1ccc(SCCSc2nc3ccccc3cc2C(=O)NCc2cccs2)cc1` [compound 18], the Emax at 1 µM was 72%.

In the case of `O=C(NCC1CCCCC1)c1cc2ccccc2nc1SCCS(=O)(=O)c1ccccc1` [compound 19], the EC50 was 167 nM and the Emax at 1 µM worked out at 71%.

Turning to `Cc1ccc(CCCSc2nc3ccccc3cc2C(=O)NCc2cccs2)cc1` [compound 20], the Emax at 1 µM worked out at 64%.

Turning to `O=C(NCc1cccs1)c1cc2ccccc2nc1SCCSc1ccccc1` [compound 21], a half-maximal response (EC50) required 119 nM and the Emax at 1 µM was found to be 30%. As to `O=C(NCCC1CCCCC1)c1cc2ccccc2nc1SCCS(=O)(=O)c1ccccc1` [compound 22], the Emax at 1 µM amounted to 15%. The same measure, in the same setting: the figure for `CC(C)(C)CCNC(=O)c1cc2ccccc2nc1SCCS(=O)(=O)c1ccccc1` [compound 23] is 14%. On the same count and under the same terms, the figure for `O=C(NCc1cccs1)c1cc2ccccc2nc1SCCSc1ccc(F)cc1` [compound 24] is 27%; for `CCSc1nc2cc(C(F)(F)F)ccc2c(C)c1C(=O)NCCC(C)(C)C` [compound 25] it is 8%. For `CCSc1nc2cc(C(F)(F)F)ccc2c(C)c1C(=O)NCC(C)(C)C` [compound 28], the Emax at 1 µM amounted to 47%. With `CCSc1nc2cc(C(F)(F)F)ccc2c(C)c1C(=O)NCC1CCCCCC1` [compound 29], a half-maximal effect (EC50) was put at 367 nM and the Emax at 1 µM was 86%. With `CCSc1nc2cc(C(F)(F)F)ccc2c(C)c1C(=O)NCc1ccc(F)c(F)c1` [compound 31], the concentration giving a half-maximal response (EC50) is 145 nM and the Emax at 1 µM turned out to be 159%.

Regarding `CCSc1nc2cc(C(F)(F)F)ccc2c(C)c1C(=O)NCc1ccc(F)cc1F` [compound 32], the EC50 came to 59 nM and the Emax at 1 µM was found to be 70%. On to `CCSc1nc2cc(C(F)(F)F)ccc2c(C)c1C(=O)NCc1cc(F)c(F)c(F)c1` [compound 33], for which a half-maximal response (EC50) required 140 nM and the Emax at 1 µM was 162%. With `CCSc1nc2cc(C(F)(F)F)ccc2c(C)c1C(=O)NCc1cc(F)c(F)cc1F` [compound 34], the EC50 was 98 nM and the Emax at 1 µM came to 72%. As for `CCSc1nc2cc(C(F)(F)F)ccc2c(C)c1C(=O)NCc1ccncc1` [compound 35], it took 2650 nM to reach a half-maximal effect (EC50) and the Emax at 1 µM was 142%.

Turning to `CCSc1nc2cc(C(F)(F)F)ccc2c(C)c1C(=O)NCc1ccc(C(C)(C)C)cc1` [compound 36], it took 136 nM to reach a half-maximal effect (EC50) and the Emax at 1 µM turned out to be 93%. For `CCSc1nc2cc(C(F)(F)F)ccc2c(C)c1C(=O)NCc1cccc(C(F)(F)F)c1` [compound 38] the same measures were 76 nM and 142%.

Consider `CCSc1nc2cc(C(F)(F)F)ccc2c(C)c1C(=O)NCCc1ccccc1` [compound 39], for which it took 473 nM to reach a half-maximal effect (EC50) and the Emax at 1 µM came out at 48%. For `CCSc1nc2cc(C(F)(F)F)ccc2c(C)c1C(=O)NCCCc1ccccc1` [compound 40] the same measures were 194 nM and 152%. As to `CCSc1nc2cc(C(F)(F)F)ccc2c(C)c1C(=O)NCc1ccccn1` [compound 41], the EC50 came to 1100 nM and the Emax at 1 µM was found to be 121%.

On to `CCSc1nc2cc(C(F)(F)F)ccc2c(C)c1C(=O)NCc1ccc2ccccc2c1` [compound 43], for which the EC50 is 159 nM and the Emax at 1 µM amounted to 77%. For `CCSc1nc2cc(C(F)(F)F)ccc2c(C)c1C(=O)NCc1nccs1` [compound 44] the same measures were 587 nM and 169%.

As to `CCSc1nc2cc(C(F)(F)F)ccc2c(C)c1C(=O)NCc1nnco1` [compound 45], the Emax at 1 µM was determined as 23%. `CCCSc1nc2cc(C(F)(F)F)ccc2c(C)c1C(=O)NCc1cccc(F)c1` [compound 46]: it took 141 nM to reach a half-maximal effect (EC50) and the Emax at 1 µM turned out to be 155%. Regarding `Cc1c(C(=O)NCc2cccc(F)c2)c(SC(C)C)nc2cc(C(F)(F)F)ccc12` [compound 47], the EC50 turned out to be 73 nM and the Emax at 1 µM turned out to be 152%.

For the compound `Cc1c(C(=O)NCc2cccc(F)c2)c(SC2CCCC2)nc2cc(C(F)(F)F)ccc12` [compound 48], a half-maximal effect (EC50) was put at 56 nM and the Emax at 1 µM worked out at 133%. On to `CCCCSc1nc2cc(C(F)(F)F)ccc2c(C)c1C(=O)NCc1cccc(F)c1` [compound 49], for which a half-maximal effect (EC50) was put at 74 nM and the Emax at 1 µM worked out at 151%.

Source of the values: patent US20100234372A1, “SUBSTITUTED 2-MERCAPTOQUINOLINE-3-CARBOXAMIDES AS KCNQ2/3 MODULATORS” (GRUNENTHAL GMBH, priority 2009, published 2010).
